In US10336748B2, “Methyoxy-substituted pyrrolopyridine modulators of RORC2 and methods of use thereof” (Pfizer Inc., priority 2015, dated 2019):

Key:
human Th17 cells = assay: IL-17 production from human Th17 cells; assay type: cell-based; conditions: 144 h; IL-17A in supernatant by ELISA (MSD) after 6 days, human CD4+ T cells, anti-CD3 + anti-CD28 + cytokine cocktail
Protocol: The activity of compound of the invention can be also be determined by an IL-17 production from human Th17 cells assay. In general, this assay measures blockade of IL-17 production, the signature cytokine of T helper 17 (Th17) cells, by compounds. Purified human CD4+ T cells are stimulated with anti-CD3+anti-CD28 and incubated with a cytokine cocktail that induce their differentiation into Th17 in the absence or presence of various concentrations of compound. After 6 days, IL-17A concentration is measured in the cell culture supernatant with an ELISA kit (MSD).
Preparation of human CD4+ T cells. CD4+ T cells were purified from buffy coats from healthy donors (obtained from Massachusetts General Hospital) by negative selection the following procedure: Mixing 25 mL of blood with 1 mL of Rosette Sep CD4+ T cell enrichment cocktail (StemCell Technologies) followed by application of a layer of 14 mL Ficoll Paque Plus (Amersham GE Healthcare) and subsequent centrifugation at 1200 g for 20 min at room temperature. The Ficoll layer was then harvested and washed with phosphate saline buffer containing 2% (v/v) fetal bovine serum and cells were resuspended with RPMI medium containing 10% (v/v) fetal bovine serum and 10% (v/v) DMSO, frozen and kept in LN2 until used.
On the first day of the assay, a vial containing 10^7 CD4+ T cells is thawed rapidly in 37° C. water bath, immediately transferred into 20 mL X-Vivo 15 medium (Lonza), is spun for 6 min at 300×g, the supernatant is discarded, and the resulting pellet is re-suspended at 10^6 cells/mL in […] fresh X-Vivo 15 medium, followed by storage overnight in a tissue culture vessel in a humidified chamber at 37° C. and 5% CO2. Serial dilutions of compounds of the invention are prepared at 10× final concentration in X-Vivo15 medium containing 3% (v/v) DMSO.
On the second day of the assay, a 384-well tissue culture plate was coated with 10 μg/mL anti-hCD3 (eBioscience) at 50 μL/well. After 2 hr at 37° C., the supernatant is discarded and the coated plates are kept in a sterile tissue culture hood.
Cytokine plus anti-CD28 cocktail is prepared by mixing 25 ng/mL hIL-6 (Peprotech), 5 ng/mL hTGFbeta1 (Peprotech), 12.5 ng/mL IL-1beta (Peprotech), 25 ng/mL hIL-21, 25 ng/mL hIL-23 (R&D Systems), and 1 ug/mL anti-hCD28 (eBioscience) in X-Vivo 15 medium. The cytokine plus anti-CD28 cocktail with CD4+ cells is prepared such that the cocktail is diluted 10-fold and cell density is 0.22×10^6/mL. The mixture is incubated 1 hr at 37° C.
90 μL (20,000 cells) dispensed per well in the anti-hCD3 coated plate prepared as noted above.
10 μL 10× compound is added per well (final DMSO=0.3%) from the compound plate that was previously prepared, followed by 6 days of incubation in a tissue culture vessel in a humidified chamber at 37° C. and 5% CO2.
On day six of the assay, production of IL-17A in 10 μL of the supernatant is determined by sandwich ELISA using 384w hIL17 MSD plates following the manufacturer's protocol. Measurement is carried out in a Sector Imager 6000 by the same manufacturer. Signal units from the instrument are converted to pg/mL using a calibration curve with known amounts of IL-17A. IC50 values of test compounds (Table 2) are determined by the non-linear regression analysis of dose response curves.

[1] = biological target: T1, RORC2 ligand binding domain (6-His-RORC2 LBD) (Homo sapiens, UniProt P51449); assay: Co-activator recruitment by TR-FRET; assay type: biochemical; conditions: 6.3 nM RORC2 LBD, 200 nM SRC1-2 coactivator peptide, 3 hr room temperature
T1 construct: made in house; host or cells: E. coli
T1 sequence (P51449 269-508 limits assumed): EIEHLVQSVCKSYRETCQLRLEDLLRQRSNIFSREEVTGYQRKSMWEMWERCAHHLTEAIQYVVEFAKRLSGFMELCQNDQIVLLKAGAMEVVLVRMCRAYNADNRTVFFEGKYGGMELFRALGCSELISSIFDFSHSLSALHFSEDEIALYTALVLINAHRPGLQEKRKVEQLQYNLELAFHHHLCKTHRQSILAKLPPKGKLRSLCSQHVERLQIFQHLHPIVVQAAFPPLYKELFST
Text: The activity of compound of the invention can be determined by a co-activator recruitment by TR-FRET (time-resolved fluorescence resonance energy transfer) assay. In general, the assay is based on the interaction between N-terminally Six-Histidine-tagged-RORC2 ligand binding domain (6-His-RORC2 LBD), expressed in E. coli and purified by affinity chromatography, and biotin-coactivator peptide SRC1-2 (biotin-aminohexanoic acid-[…]-NH2; SEQ ID NO: 1) containing the LXXLL consensus domain which is responsible for receptor binding. This interaction is detected by addition of Europium labeled-anti-His antibody (Ex. 337 nm, Em. 620 nm, which binds to 6His) and Streptavidin-APC (Ex. 620 nm, Em. 665 nm, which binds to biotin). When receptor and coactivator are bound to each other, upon shining light at 337 nm on the sample, the Europium emits fluorescence that excites APC due to close proximity (FRET) and this signal is measured at 665 nm. Due to the long lasting fluorescence emission of Europium, the non-specific, short-lived fluorescence is time-resolved (TR) from the fluorescence of interest. Inhibitors of the interaction of receptor and coactivator peptide are detected by a decrease in TR-FRET signal.
Specifically, in one embodiment the aforementioned assay was performed as outlined below. The assay was carried out in black polystyrene. 384-well plates in a total assay volume of 50.5 μL. The assay buffer contained 50 mM TRIS-HCL pH 7.5, 1 mM NaCl, 2 mM MgCl2, 0.5 mg/mL bovine serum albumin, and 5 mM dithiothreitol. The final concentration of reagents was 6.3 nM RORC2 LBD, 200 nM SRC1-2, 50 nM streptavidin APC, 1 nM Europium-labeled anti-His antibody, and varying concentrations of compounds such that final concentration of DMSO is 1% (v/v). The assay steps were: (1) dispensing […] compound at 100× final concentration in DMSO (test wells) or DMSO only (control wells for no inhibition); and (2) dispensing 50 μL mixture of the other assay components including receptor (test wells) or excluding receptor (control wells for maximal inhibition).
Assay mixtures were incubated are room temperature for 3 hr and read in EnVision 2100 Multilabel Reader (PerkinElmer Life Sciences) at Excitation Filter 320, Emission Europium Filter 615, Emission APC Filter 665, Dichroic Mirror D400/D630.
TR-FRET signal was determined by calculating the ratio of 665 nm by 615 nm and […] values of compounds of the invention (Table 1) were determined by the non-linear regression analysis of dose response curves.

IC50 (human Th17 cells) [nM] | IC50 [1] [nM] | Structure (SMILES)
17.8 | 38.7 | COc1ccc(C(=O)Nc2cnc3c(c(C4CCN(C(=O)C(C)C)CC4)cn3C)c2OC)cc1C#N [Example 2, 3-cyano-N-(3-(1-isobutyrylpiperidin-4-yl)-4-methoxy-1-methyl-1H-pyrrolo[2,3-b]pyridin-5-yl)-4-methoxybenzamide]
6.4 | 4.6 | COc1ccc(C(=O)Nc2cnc3c(c(C4CCN(C(=O)[C@@H](C)C(C)(C)C)CC4)cn3C)c2OC)cc1C#N [Example 3, (S)-3-cyano-4-methoxy-N-(4-methoxy-1-methyl-3-(1-(2,3,3-trimethylbutanoyl)piperidin-4-yl)-1H-pyrrolo[2,3-b]pyridin-5-yl)benzamide]
11 | 6.9 | COc1ccc(C(=O)Nc2cnc3c(c(C4CCN(C(=O)[C@H](C)C(C)(C)C)CC4)cn3C)c2OC)cc1C#N [Example 4, (R)-3-cyano-4-methoxy-N-(4-methoxy-1-methyl-3-(1-(2,3,3-trimethylbutanoyl)piperidin-4-yl)-1H-pyrrolo[2,3-b]pyridin-5-yl)benzamide]
10.6 | 6.1 | COc1c(NC(=O)c2cccc(C#N)c2)cnc2c1c(C1CCN(C(=O)[C@H](C)C(C)(C)C)CC1)cn2C [Example 5, (R)-3-cyano-N-(4-methoxy-1-methyl-3-(1-(2,3,3-trimethylbutanoyl)piperidin-4-yl)-1H-pyrrolo[2,3-b]pyridin-5-yl)benzamide]
15.7 | 15.2 | COc1c(NC(=O)c2cccc(C#N)c2)cnc2c1c(C1CCN(C(=O)[C@H](C)C(C)C)CC1)cn2C [Example 6, (R)-3-cyano-N-(3-(1-(2,3-dimethylbutanoyl)piperidin-4-yl)-4-methoxy-1-methyl-1H-pyrrolo[2,3-b]pyridin-5-yl)benzamide]
77.1 | 56.2 | COc1cc(C#N)cc(C(=O)Nc2cnc3c(c(C4CCN(C(=O)C[C@@H](O)C(F)(F)F)CC4)cn3C)c2OC)c1 [Example 9, (R)-3-cyano-5-methoxy-N-(4-methoxy-1-methyl-3-(1-(4,4,4-trifluoro-3-hydroxybutanoyl)piperidin-4-yl)-1H-pyrrolo[2,3-b]pyridin-5-yl)benzamide]
59.8 | 20.2 | COc1cc(C#N)cc(C(=O)Nc2cnc3c(c(C4CCN(C(=O)C5CCCC5)CC4)cn3C)c2OC)c1 [Example 12, 3-cyano-N-(3-(1-(cyclopentanecarbonyl)piperidin-4-yl)-4-methoxy-1-methyl-1H-pyrrolo[2,3-b]pyridin-5-yl)-5-methoxybenzamide]
42.1 | 14.2 | COc1c(NC(=O)c2cccc(C#N)c2)cnc2c1c(C1CCN(C(=O)[C@@H](C)C(C)C)CC1)cn2C [Example 14, (S)-3-cyano-N-(3-(1-(2,3-dimethylbutanoyl)piperidin-4-yl)-4-methoxy-1-methyl-1H-pyrrolo[2,3-b]pyridin-5-yl)benzamide]

More lines, now with the values behind:

Structure (SMILES) | IC50 (human Th17 cells) [nM] | IC50 [1] [nM]
COc1c(NC(=O)c2cccc(C#N)c2)cnc2c1c(C1CCN(C(=O)c3cccc4c3CCC4)CC1)cn2C [Example 7, 3-cyano-N-(3-(1-(2,3-dihydro-1H-indene-4-carbonyl)piperidin-4-yl)-4-methoxy-1-methyl-1H-pyrrolo[2,3-b]pyridin-5-yl)benzamide] | 28.3 | 4.7
COc1c(NC(=O)c2cccc(C#N)c2)cnc2c1c(C1CCN(C(=O)C3CCCC3)CC1)cn2C [Example 8, 3-cyano-N-(3-(1-(cyclopentanecarbonyl)piperidin-4-yl)-4-methoxy-1-methyl-1H-pyrrolo[2,3-b]pyridin-5-yl)benzamide] | 29.8 | 11.8
COc1c(NC(=O)c2ccc(F)c(C#N)c2)cnc2c1c(C1CCN(C(=O)C3CCCC3)CC1)cn2C [Example 10, 3-cyano-N-(3-(1-(cyclopentanecarbonyl)piperidin-4-yl)-4-methoxy-1-methyl-1H-pyrrolo[2,3-b]pyridin-5-yl)-4-fluorobenzamide] | 106 | 29.2
COc1c(NC(=O)c2ccc(C)c(C#N)c2)cnc2c1c(C1CCN(C(=O)C3CCCC3)CC1)cn2C [Example 11, 3-cyano-N-(3-(1-(cyclopentanecarbonyl)piperidin-4-yl)-4-methoxy-1-methyl-1H-pyrrolo[2,3-b]pyridin-5-yl)-4-methylbenzamide] | 50.7 | 17.8
COc1ccc(C(=O)Nc2cnc3c(c(C4CCN(C(=O)C5CCCCC5)CC4)cn3C)c2OC)cc1C#N [Example 13, 3-cyano-N-(3-(1-(cyclohexanecarbonyl)piperidin-4-yl)-4-methoxy-1-methyl-1H-pyrrolo[2,3-b]pyridin-5-yl)-4-methoxybenzamide] | 9.5 | 15.4
COc1c(NC(=O)c2cccc(C#N)c2)cnc2c1c([C@@H]1[C@@H]3CC[C@H]1CN(C(=O)[C@H](C)C(C)(C)C)C3)cn2C [Example 21, 3-cyano-N-(4-methoxy-1-methyl-3-((1R,5S,8R)-3-((R)-2,3,3-trimethylbutanoyl)-3-azabicyclo[3.2.1]octan-8-yl)-1H-pyrrolo[2,3-b]pyridin-5-yl)benzamide] | 21.3 | –
COc1ccc(C(=O)Nc2cnc3c(c([C@@H]4[C@@H]5CC[C@H]4CN(C(=O)C4CCCC4)C5)cn3C)c2OC)cc1C#N [Example 22, 3-cyano-N-(3-((1R,5S,8r)-3-(cyclopentanecarbonyl)-3-azabicyclo[3.2.1]octan-8-yl)-4-methoxy-1-methyl-1H-pyrrolo[2,3-b]pyridin-5-yl)-4-methoxybenzamide] | 22.7 | –
